Assay results taken from paper PMC12590356, “Novel pyrrolo[2,1-a]isoquinoline aryl ketones attenuate carbon nanotube-induced acute lung injury through NF-κB pathway inhibition” (RSC Advances, 2025).
Entries after “also recorded” stand apart in the source; their conditions may differ.

What was measured:
SWCNT-induced ALI mice [1] = assay: Complete blood count in SWCNT-induced ALI mice; type: in vivo, C57BL/6 mice; settings: 50 mg/kg once a day for 3 d, p < 0.01 vs. model
Excerpt: To explore the immunomodulatory effects of 3g and 3k, we conducted an analysis of systemic inflammatory responses in mice with SWCNT-induced ALI by employing hematological profiling. During inflammatory responses, immune activation induces cytokine production and modulates leukocyte trafficking dynamics. […] Mechanistically, the proliferation of LY is initiated in response to inflammatory stimuli as a means to combat infection. […] Consequently, this leads to a diminished requirement for the continuous mobilization of LY. These findings highlight the anti-inflammatory and immunomodulatory properties of pyrrolo[2,1-a]isoquinoline derivatives in mitigating SWCNT-induced pulmonary injury.
Based on the results of the previous in vitro experiments, 3g and 3k were chosen for animal experiments. 3g was dissolved in 5% DMSO and 3k was dissolved in 0.5% sodium carboxymethyl cellulose (CMC-Na). Male C57BL/6 mice were randomly divided into four groups of ten animals each: CON, single-walled carbon nanotubes (SWCNT) model, 3k (50 mg kg^−1) + SWCNT, 3g (50 mg kg^−1) + SWCNT. […]
Blood samples were extracted from the eyeballs of each experimental mouse cohort to obtain comprehensive whole blood specimens. Complete blood count (CBC) and differential leukocyte count (DLC) were determined using an automatic blood cell analyzer (Mindray CAL 6000, China).

[2] = system: LPS-induced NO production in RAW 264.7 cells; assay: LPS-induced NO production (Griess reagent); type: cell-based, murine; settings: Mus musculus, RAW264.7, LPS 500 ng/mL 24 h, Griess reagent, means ± SD (n = 3), read-out: IC50, inhibition of LPS-induced NO production
Method: Despite extensive research efforts focused on the treatment ALI, no specific drugs have been identified thus far. In the quest to discover innovative anti-inflammatory drugs for ALI treatment, we assessed the anti-inflammatory potential of pyrrolo[2,1-a]isoquinoline aryl ketones were evaluated through their capacity to suppress LPS-induced NO release in RAW264.7 cells.[21,28] Griess reagent was used to quantify the levels of LPS-induced NO release in RAW264.7 cells following treatment with the synthesized compounds.
The quantification of NO production in activated RAW264.7 cells was achieved by measuring the concentration of nitrite, which serves as a stable oxidative metabolite of NO, employing a previously established protocol.[37] RAW264.7 cells were cultured overnight in 48-well plates at a cellular density of 5 × 10^4 cells per milliliter. […] Briefly, Griess reagents I and II were mixed with 50 μL of the culture medium supernatant, and the resultant mixture was analyzed spectrophotometrically at a wavelength of 540 nm using an automated microplate reader. The NO inhibition rate was calculated using the following formula: NO inhibition rate = [(OD540 − compound OD540)/(OD540 − blank OD540)] × 100%.

SWCNT-induced ALI mice [3] = assay: Lung histopathology (H&E) in SWCNT-induced ALI mice; type: in vivo, C57BL/6 mice; settings: 50 mg/kg once a day for 3 d
Method: To evaluate the histopathological impact of 3g and 3k on SWCNT-induced ALI, hematoxylin and eosin (H&E) staining was performed on murine lung tissues.
Based on the results of the previous in vitro experiments, 3g and 3k were chosen for animal experiments. 3g was dissolved in 5% DMSO and 3k was dissolved in 0.5% sodium carboxymethyl cellulose (CMC-Na). Male C57BL/6 mice were randomly divided into four groups of ten animals each: CON, single-walled carbon nanotubes (SWCNT) model, 3k (50 mg kg^−1) + SWCNT, 3g (50 mg kg^−1) + SWCNT. The SWCNT model group was administered a one-time tracheal drip of 50 μL of SWCNT suspension containing 40 μg of SWCNT (approximately 1.86 mg per kg body weight) per mouse to model ALI. A blank tracheal drip of PBS was administered to the negative control. 3k + SWCNT and 3g + SWCNT groups were administered 3k or 3g of 50 mg per kg body weight once a day for 3d. The animals in the CON group received the same volume of 0.5% CMC-Na. The 1st dose was administered 1 h before modeling to avoid excessive damage to mice. The control and model groups were injected intraperitoneally with a blank solvent. […]
Mouse lung tissues were isolated and stored in a 4% paraformaldehyde solution. […] Representative images of each sample were acquired (magnification ×200) and analyzed using the ImageJ software. […]

[4] = CCK8 cell viability (cytotoxicity) assay; type: cell-based, murine; settings: mouse, RAW264.7 cells, means ± SD (n = 3)
Method: The toxic effect of synthesized compounds was evaluated on RAW264.7 cells utilizing a CCK8 assay kit.
RAW264.7 cells were seeded in 96-well plates and incubated with various compounds, each at a uniform concentration of 50 μM, for 24 h. Following this incubation, CCK8 was added to the 96-well plates and incubated at 37 °C for 1 h. The control group was cultivated solely in fresh medium. The absorbance at 450 nm was quantified using an enzyme marker.

O=C(c1ccc(F)cc1)c1ccc2c3ccccc3ccn12 [3g]
Circulating lymphocyte (LY) count (SWCNT-induced ALI mice [1]): significantly reduced circulating LY populations | IC50 [2]: 6.91 ± 0.12 µM | Histopathological lung changes (H&E) (SWCNT-induced ALI mice [3]; 50 mg/kg): significantly ameliorated these histopathological features; also recorded: superior efficacy in mitigating structural damage and neutrophil infiltration compared to 3k | viability at 24 h, 50 µM [4]: 86.5 ± 1.2%

Cc1ccccc1C(=O)c1ccc2c3ccccc3ccn12 [3k]
Circulating lymphocyte (LY) count (SWCNT-induced ALI mice [1]): significantly reduced circulating LY populations | IC50 [2]: 10.1 ± 2.09 µM | Histopathological lung changes (H&E) (SWCNT-induced ALI mice [3]): significantly ameliorated these histopathological features | viability at 24 h, 50 µM [4]: 98.8 ± 4.7%
